Experimental data reported in USRE43371E1, “Use of selected cyclosporins for the treatment of hepatitis C infection” (priority 2004, dated 2012).
≈ marks a conversion by molar mass, not a printed value.

Tests used:
[1] = tested on: HCV replicon-containing MH-14 cells; settings: cited from earlier work; for HCV RNA accumulation was inhibited: Northern blot and quantitative RT-PCR
[2] = target: T1, human recombinant cyclophilin A (Homo sapiens, UniProt P62937); assay: PPIase activity of cyclophilin A, tight binding inhibitor analysis; type: biochemical; settings: for k: rate constant for the rate limiting reaction; for Et: total enzyme concentration from tight binding fit
T1 construct: purchased Sigma
T1 sequence (P62937 whole entry): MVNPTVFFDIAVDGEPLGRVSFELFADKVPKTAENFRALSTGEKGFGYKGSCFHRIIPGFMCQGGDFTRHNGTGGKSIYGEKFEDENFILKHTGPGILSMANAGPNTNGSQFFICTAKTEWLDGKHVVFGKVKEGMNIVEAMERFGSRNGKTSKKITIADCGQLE
Description: Commercial human recombinant cyclophilin A (Sigma) was used in the assays. PPlase activity of cyclophilins was determined using a chymotrypsin-coupled spectrophotometric assay according to Garcia-Echverria et al. (BBRC, 191, (1993), 70-75). This method is based on the high trans selectivity of chymotrypsin for peptides of the type N-succinyl-ala-ala-pro-phe-p-nitroanilide. The peptides cleavage liberated the para-nitroaniline moiety that could be detected and quantitated at 390 nm. The hydrolysis of the cis form was limited by the rate of cis-trans isomerisation carried out by cyclophilin A. The peptide was made up in a solution of […] LiCl in 2,2,2-trifluoroethanol at 470 mM to enhance the cis conformer peptides population. The assay was performed on the split beam spectrophotometer and the water bath was set at 5° C. Cyclophilin A (7500 pmol/mg total enzyme concentration; Sigma) were dissolved at 20 nM in a buffer (35 mM HEPES and 0.26 mg/ml chymotrypsin (specific activity 50 units/mg), pH 7.8 with KOH) and were incubated for 6 minutes at room temperature followed by 54 minutes in the water bath. […] Then 3.5 ml of the incubated cyclophilin was added to the sample cuvette. […] Peptide was added at 25 μM to initiate the reaction and the change in absorbance was monitored at 10 data points per second. As a control, rates were also determined for a parallel reaction that lacked cyclophilin. These blank rates of peptide hydrolysis (i.e. in the absence of cyclophilin) were subtracted from rates in the presence of cyclophilin A.
The initial rates obtained from the PPlase assays were analysed by first order regression analysis by using first order transformation of the traces of the time course of the change in the absorbance at 390 nm. Total enzyme concentration (Et), the inhibitor dissociation constant (Ki) and the rate constant for the rate limiting reaction was calculated with the software FigSyS (2003, Biosoft) by fitting the data obtained from the regression analysis in the tight binding inhibitor multiprotein equation.
Once Et, Ki and k were calculated by the computer for a given set of data, a graphic representation of the data was plotted and the line fitted to the points assuming tight inhibitor binding to a single protein, defined by the following equations: v=K*Et*P−K(B−sqrt(B*B−4*C))/2 where B=Et*P+I+Ki and C=Et*P*I.

cyclophilin = target: T2, cyclophilin (Homo sapiens, UniProt P62937); assay: Peptidyl-prolyl cis-trans isomerase (PPIase) activity of cyclophilin, chymotrypsin-coupled Suc-AAPF-pNA assay; type: biochemical; settings: compared with substitution in position 4 only
T2 construct: purchased Sigma
T2 sequence (P62937 whole entry): as above
Description: Peptidyl-prolyl cis-trans isomerase (PPlase) activity of cyclophilins was determined using a procedure adapted from Kofron et al. (see Biochemistry 30, 6127-6134 (1991); J. Am. Chem. Soc. 114, 2670-2675 (1992)). N-succinylated Ala-Ala-Pro-Phe-para nitro-aniline (Suc-AAPF-pNA, Bachem, Bubendorf, Switzerland) was used as the substrate. The assay was based on the preferential chymotrypsin cleavage of the trans isoform of the Phe-pNA bond in the tetrapeptide Ala-Ala-Pro-Phe-pNA. This cleavage liberates the para-nitroaniline moiety that can be detected and quantitated at 390 nm (ε=11,814 M^−1cm^−1). […] Cis-trans isomerization is catalysed by cyclophilin (PPlase, EC 5.2.1.8). […] Subsequent to the addition of 3.75 mg of chymotrypsin (70 μl of a solution of chymotrypsin in 10 mM HCl), the reaction was initiated by addition of 10 μl of a 3.2 mM solution of Suc-AAPF-pNA in 0.5 M LiCl/trifluoroethanol. The reaction was monitored for 3 min, and an initial rate constant was determined from the data obtained. As a control, an initial rate constant was also determined for a parallel reaction that lacked cyclophilin.

CD4+ PBMCs = assay: Mixed lymphocyte reaction, proliferative response of CD4+ PBMCs; type: cell-based; settings: for immunosuppressive activity (interpretation of Table 2): mixed lymphocyte reaction, 1 μg/ml; for % Stimulation (relative): cyclosporin 1 μg/ml, five days, [3H]-thymidine incorporation
Description: In this assay, cyclosporins were dissolved in ethanol (10 mg/ml). Freshly isolated CD4^+ PBMCs from two healthy donors were mixed subsequent to inactivation by irradiation of one of the populations (stimulator cells; S). […] R) was determined by [^3H]-thymidine incorporation. The assay was conducted reciprocally with the two cell populations, each being inactivated and stimulated in turn. Stimulation (%) of responder cells was calculated by the formula: […] Sample refers to a mixture of stimulator and responder cells. Background represents a control in which only stimulator cells are mixed.

[3] = tested on: Jc1-Luc recombinant virus (HCV strains J6/JFH1) in Huh-7-Lunet and Huh-7.5 cells; assay: Luciferase assay in hepatoma cells infected with Jc1-Luc recombinant HCV; type: cell-based, hepatitis C virus (HCV); settings: Huh-7-Lunet and Huh-7.5 cells infected with Jc1-Luc; for antiviral activity: 72 hours (FIGS. 1 and 2)
Text: The method used hepatoma cells that had been infected with an infectious full length cheieric HCV construct or the same virus that was modified to carry a luciferase […] gene.
Infectious HCV viruses of full-length chimeric genome between HCV strains J6 and JFH1 (Jc1) were used to inoculate the hepatoma cells of the assays. The construct of Jc1 virus was also modified to obtain a bicistronic genome carrying a luciferase reporter gene (Jc1-Luc). Twenty-four and ninety-six hours after the transfection of RNA transcripts of the genomes by electroporation of Huh-7.5 cells, cell culture supernatant was collected. Supernatants were filtered ([…]) and cell culture infectious dose 50 (CCID50) per ml were determined by the limiting dilution assays according to Lindenbach et al. (Science, 309, (2005), 623-626). The CCID50 were 1.3×105 for Jc1 and 4.2×103 for Jc1-Luc.
Assays used either Huh-7-Lunet or Huh-7.5 cells (Lohmann et al., Science 285(5424), (1999), 110-113). Cells were grown in Dulbecco's modified Eagle's Medium (DMEM; Gibco) supplemented with 10% heat-inactivated fetal bovine serum (FCS) (Integro), 1× non-essential amino acids (Gibco), 100 IU/ml penicillin (Gibco), 100 μg/ml streptomycin (Gibco) or 25 μg/ml hygromycin (Gibco) for Huh-mono cells at 37° C. and 5% CO2. For antiviral (replication) assays, Huh-7-Lunet and Huh-7.5 cells were seeded at a density of 2×104 or 4×10^4 cells per well of a 12-well plate. Twenty four hours later, the medium was replaced by 0.5 ml of the Jc1-Luc virus stock (12-well plates) or 0.25 ml of the Jc1 virus stock (12-well plates).
The inhibition of viral replication were estimated by luciferase assay. To carry out luciferase assay, cells were harvested, washed with PBS and lysed in luciferase lysis buffer (1% Triton X-100, 25 mM glycylglycine, 15 mM MgSO4, 4 mM EGTA, and 1 mM DTT). Firefly luciferase activity was measured according to Krieger et al. (J Virol, 75(10), (2001), 4614-4624). […] Finally, luminescence was measured by using a Lumat LB9507 luminometer (Berthold) for 20 samples.

[4] = tested on: HCV replicon in Huh-9-13 cells; assay: HCV replicon clearance and rebound in Huh-9-13 cells; type: cell-based, hepatitis C virus (HCV); settings: after 7 consecutive passages at 0.5 or 1 μg/ml; G418 1000 μg/ml for 2 passages (FIG. 3)
Description: Assays used Huh-9-13 cells, human hepatoma cells (Huh-7) (Lohmann et al., Science 285(5424), (1999), 110-113) Cells were grown in the usual complete medium DMEM without G418 pressure.
RT-PCR were performed on extracts of viral RNA of samples taken at different passage points. The forward and reverse primers used were 5′-[sequence]-3′ and 5′-[sequence]-3′, respectively. The fluorogenic probe was 5′-[sequence]-3′. As an internal control, a plasmid containing part of the neomycin phosphotransferase gene sequence was used. Results were analysed and expressed as a quantity of replicon RNA (ng) per 1′000 cells and used to draft a graph.

[5] = Initial phase I clinical studies, safety of oral doses; type: in vivo
Description: Initial phase I clinical studies were carried out to assess the safety of oral doses of [D-MeAla]^3-[EtVal]^4-CsA, and to determine the pharmacokinetic profile and safety profile of the drug substance. […] These side effects were not dose-related.

[6] = tested on: HCV replicon (genotype 1 b) in Huh 5-2 cells; settings: EC50 derived from RNA titers by quantitative RT-PCR; asterisk = lower of two independently determined values
Description: (§1) Assays used Huh 5-2 cells that contained a bicistronic RNA encoding a firefly luciferase-ubiquitin-neomycin phosphotransferase fusion protein and HCV proteins NS3-5. The viral sequences originated from an HCV virus of genotype 1 b. Cells were cultured in RPMI 1640 medium (Gibco) supplemented with 10% fetal calf serum, 2 mM glutamine (Life Technologies), 1× non-essential amino acids (Life Technologies), 100 u/ml penicillin, 100 μg/ml streptomycin and 250 μg/ml G418 (Geneticin, Life Technologies) at 37° C. and 5% CO2. For antiviral (replication) assays, cells were seeded at a density of 7000 cells/well in 96-well View Plates™ (Packard) in the same medium except for G418. After a 24-h incubation, medium was removed, serial dilutions of test compounds in medium were added, and cells were incubated for an additional 72 h.
Results from these experiments permitted calculation of EC50 for the different cyclosporins, which is the effective concentration required to inhibit HCV replicon replication by 50%, and of CC50, which is the concentration required that inhibits the proliferation of exponentially growing cells by 50%, and a selectivity index SI, which is the ratio between CC50 and EC50.

[7] = tested on: HCV replicon (genotype 1 b) in Huh 5-2 cells
Description: as §1
Antiviral effects were estimated either by luciferase assay or quantitative RT-PCR. To carry out luciferase assays, medium was removed, and cells were washed with PBS. Subsequent to lysis in 50 μl of Glo-lysis buffer (Promega) for 15 min, 50 μl of Stead-Glo Luciferase Assay Reagent (Promega) were added to cell lysates. Luciferase activity was measured using a luminometer, and the signal from each test well was expressed as a percentage of the signal measured in wells of cultures not exposed to a test compound. […]

C/C=C/C[C@@H](C)C(=O)[C@H]1C(=O)N[C@@H](C(C)C)C(=O)N(C)CC(=O)N(C)[C@@H](CC(C)C)C(=O)N[C@@H](C(C)C)C(=O)N(C)[C@@H](CC(C)C)C(=O)N[C@@H](C)C(=O)N[C@H](C)C(=O)N(C)[C@@H](CC(C)C)C(=O)N(C)[C@@H](CC(C)C)C(=O)N(C)[C@@H](C(C)C)C(=O)N1C [PSC 833]
HCV RNA accumulation was inhibited ([1]; MH-14 cells): not

C/C=C/C[C@@H](C)[C@@H](O)[C@H]1C(=O)N[C@@H](CC)C(=O)N(C)[C@H](C)C(=O)N(CC)[C@@H](C(C)C)C(=O)N[C@@H](C(C)C)C(=O)N(C)[C@@H](CC(C)C)C(=O)N[C@@H](C)C(=O)N[C@H](C)C(=O)N(C)[C@@H](CC(C)C)C(=O)N(C)[C@@H](CC(C)C)C(=O)N(C)[C@@H](C(C)C)C(=O)N1C [[D-MeAla]^3-[EtVal]^4-CsA]
higher affinity for cyclophilin compared to [MeIle]4-CsA ([2]; cyclophilin A): ~6 fold | k [2]: 0.16 ± 0.0074 s − 1 | Et [2]: 7500 pmol/mg | further increase in cyclophilin binding activity by substitution in position 3 (cyclophilin): ≥ 2 fold | immunosuppressive activity (interpretation of Table 2) (CD4+ PBMCs): essentially devoid of immunosuppressive activity | antiviral activity [3]: dose-dependent antiviral activity | outcome of cultures in the presence of G418 (rebound phase) [4]: the cultures died | tolerability of oral doses ([5]; doses of 50 to 1600 mg in a micro-emulsion in water): well tolerated | side effects ([5]; oral doses 50 to 1600 mg, not dose-related): Mild and short-lived side effects were observed including nausea, vomiting, abdominal pain, mild headaches

C/C=C/C[C@@H](C)[C@@H](O)[C@H]1C(=O)N[C@@H](CC)C(=O)N(C)CC(=O)N(C)[C@@H]([C@@H](C)CC)C(=O)N[C@@H](C(C)C)C(=O)N(C)[C@@H](CC(C)C)C(=O)N[C@@H](C)C(=O)N[C@H](C)C(=O)N(C)[C@@H](CC(C)C)C(=O)N(C)[C@@H](CC(C)C)C(=O)N(C)[C@@H](C(C)C)C(=O)N1C [[MeIle]^4-CsA]
k [2]: 0.17 ± 0.0068 s − 1 | Et [2]: 7500 pmol/mg | effectiveness in reducing HCV RNA titer relative to CsA ([1]; MH-14 cells): about equally as effective as CsA | SI values [6]: 73 | % Stimulation (relative) (CD4+ PBMCs; co-culture R1 × S2): 84% | % Stimulation (relative) (CD4+ PBMCs; co-culture R2 × S1): 75% | immunosuppressive activity (interpretation of Table 2) (CD4+ PBMCs): essentially devoid of immunosuppressive activity | EC50 +/− Std. Dev. ([7]; luciferase assay, 72 h): 0.22 µg/mL (≈ 0.183 µM) | Selectivity index ([7]; ratio between CC50 (MTT) and EC50 (luciferase)): 64

Cyclosporin A [CsA]
k [2]: 0.17 ± 0.0069 s − 1 | Et [2]: 7500 pmol/mg | reduction of HCV RNA titer ([1]; 7-day exposure, 1 μg/ml): about 200 fold | HCV RNA accumulation was inhibited ([1]; MH-14 cells): inhibited | higher concentration needed for the same replication inhibiting effect as [D-MeAla]3-[EtVal]4-CsA [3]: 10 fold | antiviral activity [3]: dose-dependent antiviral activity
